Results on nine molecules are retold here after US12240818B2, “Crystalline forms of plasma kallikrein inhibitors” (Rezolute, Inc., priority 2019, dated 2025).

Data set [1] in a line: Aqueous solubility of solid forms. In kind it is physicochemical. The following applies: for aqueous solubility: at 25° C., acetate.
A short description of data set [2]: Compression stability of crystalline forms (XRPD, TGA, DSC). The data set is classed as physicochemical. The note with it: compression under 11×10^5 N force for about 25-28 hours; acetate. How it is done: X-Ray Powder Diffraction patterns were collected under ambient conditions (about 20° C.) on a PANalytical X'Pert PRO X-ray diffractometer (Malvern Panalytical, Malvern, UK) using Cu Kα radiation (45 kV, 40 mA), θ-θ goniometer, focusing mirror, divergence slit (½″), Soller slits at both incident and divergent beam (4 mm), a transmission foil sample stage (Kapton® polyimide, 12.7 μm thickness film), and a PIXcel detector. The software used for data collection was X'Pert Data Collector, version 2.2f, and the data was presented using X'Pert Data Viewer, version 1.2d. The data collection range was 2.994-35°2θ with a continuous scan speed of 0.202004° s^−1. Differential scanning calorimetry data was collected on a PerkinElmer Pyris 6000 DSC equipped with a 45 position sample holder. The instrument was verified for energy and temperature calibration using certified indium. In the examples below, a predefined amount of the sample (0.5-3.0 mg) was placed in a pin holed aluminum pan and heated at 20° C./min from 30° C. to 350° C., or varied as experimentation dictated. A purge of dry nitrogen at 20 mL/min was maintained over the sample. The instrument control, data acquisition and analysis were performed with Pyris Software v11.1.1 revision H. Thermo-Gravimetric Analysis data was collected on a PerkinElmer Pyris 1 TGA equipped with a 20 position auto-sampler. The instrument was calibrated using a certified weight and certified Alumel and Perkalloy for temperature. In the examples below, a predefined amount of the sample (˜5 mg) was loaded onto a pre-tared aluminum crucible and was heated at 20° C./min from ambient temperature to 400° C. unless otherwise stated. A nitrogen purge at 20 mL/min was maintained over the sample. The instrument control, data acquisition and analysis were performed with Pyris Software v11.1.1 revision H. The manufacturing process for solid dosage forms can require high compression and/or grinding, which may cause a change in crystal structure for some compounds. Compound 1 Form I and Form II were subjected to compression under 11×10^5N force for about 25-28 hours to assess the impact of compression upon the form stability of these crystalline forms.

Data set [3] is described as follows: Grinding stability of crystalline forms (XRPD, thermal). In kind it is physicochemical. How it is done:
X-Ray Powder Diffraction patterns were collected under ambient conditions (about 20° C.) on a PANalytical X'Pert PRO X-ray diffractometer (Malvern Panalytical, Malvern, UK) using Cu Kα radiation (45 kV, 40 mA), θ-θ goniometer, focusing mirror, divergence slit (½″), Soller slits at both incident and divergent beam (4 mm), a transmission foil sample stage (Kapton® polyimide, 12.7 μm thickness film), and a PIXcel detector. The software used for data collection was X'Pert Data Collector, version 2.2f, and the data was presented using X'Pert Data Viewer, version 1.2d. The data collection range was 2.994-35°2θ with a continuous scan speed of 0.202004° s^−1.
Differential scanning calorimetry data was collected on a PerkinElmer Pyris 6000 DSC equipped with a 45 position sample holder. The instrument was verified for energy and temperature calibration using certified indium. In the examples below, a predefined amount of the sample (0.5-3.0 mg) was placed in a pin holed aluminum pan and heated at 20° C./min from 30° C. to 350° C., or varied as experimentation dictated. A purge of dry nitrogen at 20 mL/min was maintained over the sample. The instrument control, data acquisition and analysis were performed with Pyris Software v11.1.1 revision H.
Thermo-Gravimetric Analysis data was collected on a PerkinElmer Pyris 1 TGA equipped with a 20 position auto-sampler. The instrument was calibrated using a certified weight and certified Alumel and Perkalloy for temperature. In the examples below, a predefined amount of the sample (˜5 mg) was loaded onto a pre-tared aluminum crucible and was heated at 20° C./min from ambient temperature to 400° C. unless otherwise stated. A nitrogen purge at 20 mL/min was maintained over the sample. The instrument control, data acquisition and analysis were performed with Pyris Software v11.1.1 revision H.
Samples of both Form I and Form II (about 100 mg each) were subjected to grinding operations to assess the impact on solid form and observed microscopy. It was of interest to note whether amorphous content was generated, and to review the impact upon water content for the batches, especially with regards to Form II hydrate.

In data set [4] the test system is patients with hereditary angioedema. The following applies: cited from earlier work.
Data set [5] deals with angiotensin-II-treated rodents. The note with it: cited from earlier work.
The subject of data set [6] is animal model of ischemic stroke. The following applies: cited from earlier work.
For data set [7], the system named is rat model of ischemic stroke. The note with it: cited from earlier work.
The subject of data set [8] is model of hemorrhagic stroke. The note with it: cited from earlier work.
Data set [9] relates to mouse model of middle cerebral artery occlusion. The following applies: cited from earlier work.

For the molecule `CC(=O)O.N=C(N)c1ccc(CNC(=O)c2cnn(Cc3ccccc3)c2)cc1` [Form II, 1-benzyl-N-(4-carbamimidoylbenzyl)-1H-pyrazole-4-carboxamide acetate], the aqueous solubility result in [1] was “about 5.5 mg/mL”. For the same molecule, in data set [2], the “DSC thermograph change following compression” value is reported as “reduction in the intensity, but increase of the temperature of the main melt endotherm”; the “TGA thermograph change following compression” value is on record as “slight increase in the water content”; the “XRPD pattern change following compression” value is reported as “significant change in the diffraction pattern to a pattern of reduced crystallinity”. Besides, the “change of solid form post-grinding (thermal, XRPD)” value in [3] (about 100 mg ground) is “minor alteration in reflection resolution and intensity”. In addition, the water content post-grinding in data set [3] (after grinding) came to 3.93 wt %. Also, the “water content at point of production” value in [3] (before grinding) is recorded as 2.76 wt %.

For the molecule `CC(=O)O.N=C(N)c1ccc(CNC(=O)c2cnn(Cc3ccccc3)c2)cc1` [Form III, 1-benzyl-N-(4-carbamimidoylbenzyl)-1H-pyrazole-4-carboxamide acetate], the aqueous solubility entry in [1] was “about 7.2 mg/mL”.

For the molecule `NC(N)=NCCC[C@@H](N)C(=O)N[C@@H](CCCN=C(N)N)C(=O)N1CCC[C@H]1C(=O)N1C[C@H](O)C[C@H]1C(=O)NCC(=O)N[C@@H](Cc1cccs1)C(=O)N[C@@H](CO)C(=O)N1Cc2ccccc2C[C@@H]1C(=O)N1[C@H](C(=O)N[C@@H](CCCN=C(N)N)C(=O)O)C[C@@H]2CCCC[C@@H]21` [icatibant], the “effect on hereditary angioedema” value in data set [4] is on record as “effective”.

For the molecule `CC(=O)O.N=C(N)c1ccc(CNC(=O)c2cnn(Cc3ccccc3)c2)cc1` [Form I, 1-benzyl-N-(4-carbamimidoylbenzyl)-1H-pyrazole-4-carboxamide acetate], the solubility in [1] (water, 25 °C) is approximately 8300 µg/mL. For the same molecule, in [2], the “DSC thermograph change following compression” value was “reduction in the intensity and temperature of the melt endotherm”; the “TGA thermograph change following compression” value is on record as “no change in the TGA thermograph”; the “XRPD pattern change following compression” value is listed as “subtle reduction in diffraction resolution”. Also, in data set [3] (compression and grinding, summary), the “stability under manual stress” value is “superior stability to hydrated Form II”.

`CC(=O)O.N=C(N)c1ccc(CNC(=O)c2cnn(Cc3ccccc3)c2)cc1` [Form V, 1-benzyl-N-(4-carbamimidoylbenzyl)-1H-pyrazole-4-carboxamide acetate]: in [1], the aqueous solubility entry is “about 7.1 mg/mL”.

Consider Hoe-140 [reference compound], for which the retinal vascular permeability entry in data set [5] was “reduce retinal vascular permeability”.

For the molecule Ecallantide, the “effect on hereditary angioedema” value in data set [4] is “alleviates edema”. Moreover, the “brain edema, infarct volume and neurological deficits” value in data set [6] was “reduced brain edema, infarct volume and neurological deficits”.

As for `CC(=O)O.N=C(N)c1ccc(CNC(=O)c2cnn(Cc3ccccc3)c2)cc1` [Compound 1, 1-benzyl-N-(4-carbamimidoylbenzyl)-1H-pyrazole-4-carboxamide acetate salt], the retinal vascular permeability result in data set [5] is “reduce retinal vascular permeability”. In addition, the “infarction volume and cerebrovascular edema” value in data set [7] was “reduce infarction volume and cerebrovascular edema”. For the same molecule, the “expansion of intracerebral hemorrhage” value in data set [8] was “reduce”.

B1: C1-INH: the major endogenous inhibitor of PK (protein, UniProt P05155 23-500, looked up)
Plasma protease C1 inhibitor: NPNATSSSSQDPESLQDRGEGKVATTVISKMLFVEPILEVSSLPTTNSTTNSATKITANTTDEPTTQPTTEPTTQPTIQPTQPTTQLPTDSPTQPTTGSFCPGPVTLCSDLESHSTEAVLGDALVDFSLKLYHAFSAMKKVETNMAFSPFSIASLLTQVLLGAGENTKTNLESILSYPKDFTCVHQALKGFTTKGVTSVSQIFHSPDLAIRDTFVNASRTLYSSSPRVLSNNSDANLELINTWVAKNTNNKISRLLDSLPSDTRLVLLNAIYLSAKWKTTFDPKKTRMEPFHFKNSVIKVPMMNSKKYPVAHFIDQTLKAKVGQLQLSHNLSLVILVPQNLKHRLEDMEQALSPSVFKAIMEKLEMSKFQPTLLTLPRIKVTTSQDMLSIMEKLEFFDFSYDLNLCGLTEDPDLQVSAMQHQTVLELTETGVEAAAASAISVARTLLVFEVQQPFLFVLWDQQHKFPVFMGRVYDPRA
In the case of B1, the infarct size result in data set [9] was “reduced infarct size”.

What is called solubility is the dissolved amount per volume that the medium holds. A high value points to a readily soluble substance.
